The kinase profiling compilation of Christmann-Franck et al. (2016)

Experiments:
Experiment in all cases: radiometric filter-binding kinase assay, Kinase HotSpot
Conditions in all cases: compound 0.5 µM; ATP 10 µM
ABL2 (human) = ABL2 (human) (UniProt P42684)
AKT3 (human) = AKT3 (human) (UniProt Q9Y243)
ALK (human) = ALK (human) (UniProt Q9UM73)
CAMK2A (human) = CAMK2A (human) (UniProt Q9UQM7)
CDK4 CCND1 (human) = CDK4 CCND1 (human) (UniProt P24385+P11802)
CDK5 CDK5R1 p35 (human) = CDK5 CDK5R1 p35 (human) (UniProt Q00535+Q15078)
CDK7 CCNH MNAT1 (human) = CDK7 CCNH MNAT1 (human) (UniProt P50613+P51948+P51946)
CDK9 CCNT1 (human) = CDK9 CCNT1 (human) (UniProt P50750+O60563)
CLK3 (human) = CLK3 (human) (UniProt P49761)
CSF1R (human) = CSF1R (human) (UniProt P07333)
DAPK1 (human) = DAPK1 (human) (UniProt P53355)
EPHA7 (human) = EPHA7 (human) (UniProt Q15375)
EPHB2 (human) = EPHB2 (human) (UniProt P29323)
EPHB4 (human) = EPHB4 (human) (UniProt P54760)
GSG2 (human) = GSG2 (human) (UniProt Q8TF76)
GSK3B (human) = GSK3B (human) (UniProt P49841)
HIPK3 (human) = HIPK3 (human) (UniProt Q9H422)
MAP3K11 (human) = MAP3K11 (human) (UniProt Q16584)
MAP3K14 (human) = MAP3K14 (human) (UniProt Q99558)
MAP3K7 TAB1 (human) = MAP3K7 TAB1 (human) (UniProt O43318+Q15750)
MAPK1 (human) = MAPK1 (human) (UniProt P28482)
MAPK8 (human) = MAPK8 (human) (UniProt P45983)
MARK2 (human) = MARK2 (human) (UniProt Q7KZI7)
MET (human) = MET (human) (UniProt P08581)
MINK1 (human) = MINK1 (human) (UniProt Q8N4C8)
MLTK (human) = MLTK (human) (UniProt Q9NYL2)
MUSK (human) = MUSK (human) (UniProt O15146)
NEK4 (human) = NEK4 (human) (UniProt P51957)
NEK9 (human) = NEK9 (human) (UniProt Q8TD19)
NTRK3 (human) = NTRK3 (human) (UniProt Q16288)
PRKCB1 (human) = PRKCB1 (human) (UniProt P05771)
PRKD3 (human) = PRKD3 (human) (UniProt O94806)
RIPK2 (human) = RIPK2 (human) (UniProt O43353)
ROCK1 (human) = ROCK1 (human) (UniProt Q13464)
ROS1 (human) = ROS1 (human) (UniProt P08922)
RPS6KA4 KD2 (human) = RPS6KA4 KD2 (human) (UniProt O75676)
RPS6KA5 KD2 (human) = RPS6KA5 KD2 (human) (UniProt O75582)
SRC (human) = SRC (human) (UniProt P12931)
TAOK2 (human) = TAOK2 (human) (UniProt Q9UL54)
TLK2 (human) = TLK2 (human) (UniProt Q86UE8)
VRK1 (human) = VRK1 (human) (UniProt Q99986)

Sequence of EPHB2 (human) (P29323 whole entry, looked up): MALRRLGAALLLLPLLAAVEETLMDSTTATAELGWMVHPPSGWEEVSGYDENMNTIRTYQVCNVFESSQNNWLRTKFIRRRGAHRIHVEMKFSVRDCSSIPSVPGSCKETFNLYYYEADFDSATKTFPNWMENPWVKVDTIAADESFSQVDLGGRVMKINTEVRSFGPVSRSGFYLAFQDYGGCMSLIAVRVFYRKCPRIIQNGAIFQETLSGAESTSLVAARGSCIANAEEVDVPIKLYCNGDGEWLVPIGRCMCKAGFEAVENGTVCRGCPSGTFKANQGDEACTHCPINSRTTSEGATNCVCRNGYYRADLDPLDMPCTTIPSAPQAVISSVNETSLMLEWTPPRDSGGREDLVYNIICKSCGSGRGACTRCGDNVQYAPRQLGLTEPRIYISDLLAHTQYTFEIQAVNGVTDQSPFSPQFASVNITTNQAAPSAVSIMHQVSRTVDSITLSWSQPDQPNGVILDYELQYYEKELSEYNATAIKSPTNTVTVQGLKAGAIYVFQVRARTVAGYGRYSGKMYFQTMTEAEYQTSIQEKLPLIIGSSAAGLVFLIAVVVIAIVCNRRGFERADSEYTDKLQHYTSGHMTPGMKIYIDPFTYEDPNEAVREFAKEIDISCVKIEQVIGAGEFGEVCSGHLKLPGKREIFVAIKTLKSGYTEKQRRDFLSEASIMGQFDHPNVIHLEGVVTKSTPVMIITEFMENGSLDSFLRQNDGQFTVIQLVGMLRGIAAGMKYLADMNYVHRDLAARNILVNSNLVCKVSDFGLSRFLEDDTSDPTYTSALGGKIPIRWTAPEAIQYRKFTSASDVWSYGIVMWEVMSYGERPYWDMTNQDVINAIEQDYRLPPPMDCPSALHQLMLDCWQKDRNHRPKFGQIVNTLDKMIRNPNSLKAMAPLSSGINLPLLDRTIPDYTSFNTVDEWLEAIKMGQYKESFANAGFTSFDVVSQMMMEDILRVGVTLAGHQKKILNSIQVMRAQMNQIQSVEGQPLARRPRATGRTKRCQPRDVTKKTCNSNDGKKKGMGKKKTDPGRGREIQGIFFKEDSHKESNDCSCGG
Sequence of CLK3 (human) (P49761 whole entry, looked up): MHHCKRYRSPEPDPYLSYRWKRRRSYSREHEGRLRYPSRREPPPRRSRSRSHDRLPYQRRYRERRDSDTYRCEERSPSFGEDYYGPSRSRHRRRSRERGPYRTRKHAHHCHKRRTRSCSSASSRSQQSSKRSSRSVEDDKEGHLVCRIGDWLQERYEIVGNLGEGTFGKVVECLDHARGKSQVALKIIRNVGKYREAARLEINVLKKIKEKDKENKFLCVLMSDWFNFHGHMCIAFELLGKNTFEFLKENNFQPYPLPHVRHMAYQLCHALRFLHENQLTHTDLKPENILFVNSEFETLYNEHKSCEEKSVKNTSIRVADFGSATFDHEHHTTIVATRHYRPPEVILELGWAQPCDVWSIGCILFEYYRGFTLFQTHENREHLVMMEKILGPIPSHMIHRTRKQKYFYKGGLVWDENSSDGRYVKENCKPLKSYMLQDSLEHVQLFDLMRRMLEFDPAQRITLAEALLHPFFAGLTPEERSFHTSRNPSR
Sequence of EPHB4 (human) (P54760 whole entry, looked up): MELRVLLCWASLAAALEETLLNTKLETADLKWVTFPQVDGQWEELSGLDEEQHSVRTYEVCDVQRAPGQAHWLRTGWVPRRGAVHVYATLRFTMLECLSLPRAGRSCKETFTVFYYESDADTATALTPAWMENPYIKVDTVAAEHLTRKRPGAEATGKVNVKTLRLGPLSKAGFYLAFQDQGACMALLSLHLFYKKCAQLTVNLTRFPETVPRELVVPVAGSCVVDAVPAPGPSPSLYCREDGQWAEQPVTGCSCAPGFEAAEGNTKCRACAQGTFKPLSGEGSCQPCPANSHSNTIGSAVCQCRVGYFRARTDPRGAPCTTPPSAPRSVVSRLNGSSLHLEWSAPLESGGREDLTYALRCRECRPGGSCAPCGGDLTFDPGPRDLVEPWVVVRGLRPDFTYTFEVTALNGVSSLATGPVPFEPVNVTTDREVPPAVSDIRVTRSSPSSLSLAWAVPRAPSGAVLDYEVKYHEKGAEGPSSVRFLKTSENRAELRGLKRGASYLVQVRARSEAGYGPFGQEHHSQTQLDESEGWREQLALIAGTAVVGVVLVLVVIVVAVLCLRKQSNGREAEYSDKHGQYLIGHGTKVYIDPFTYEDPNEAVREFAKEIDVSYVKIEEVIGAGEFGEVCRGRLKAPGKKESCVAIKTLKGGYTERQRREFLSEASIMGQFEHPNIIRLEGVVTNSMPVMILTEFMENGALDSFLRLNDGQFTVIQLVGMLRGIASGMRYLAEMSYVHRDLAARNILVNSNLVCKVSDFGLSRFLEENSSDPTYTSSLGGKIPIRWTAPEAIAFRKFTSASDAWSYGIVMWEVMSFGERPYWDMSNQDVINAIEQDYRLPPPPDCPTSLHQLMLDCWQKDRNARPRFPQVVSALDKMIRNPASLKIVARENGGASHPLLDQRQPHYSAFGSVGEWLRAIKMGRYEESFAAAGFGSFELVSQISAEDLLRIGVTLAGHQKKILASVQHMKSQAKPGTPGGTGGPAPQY
Sequence of ROCK1 (human) (Q13464 whole entry, looked up): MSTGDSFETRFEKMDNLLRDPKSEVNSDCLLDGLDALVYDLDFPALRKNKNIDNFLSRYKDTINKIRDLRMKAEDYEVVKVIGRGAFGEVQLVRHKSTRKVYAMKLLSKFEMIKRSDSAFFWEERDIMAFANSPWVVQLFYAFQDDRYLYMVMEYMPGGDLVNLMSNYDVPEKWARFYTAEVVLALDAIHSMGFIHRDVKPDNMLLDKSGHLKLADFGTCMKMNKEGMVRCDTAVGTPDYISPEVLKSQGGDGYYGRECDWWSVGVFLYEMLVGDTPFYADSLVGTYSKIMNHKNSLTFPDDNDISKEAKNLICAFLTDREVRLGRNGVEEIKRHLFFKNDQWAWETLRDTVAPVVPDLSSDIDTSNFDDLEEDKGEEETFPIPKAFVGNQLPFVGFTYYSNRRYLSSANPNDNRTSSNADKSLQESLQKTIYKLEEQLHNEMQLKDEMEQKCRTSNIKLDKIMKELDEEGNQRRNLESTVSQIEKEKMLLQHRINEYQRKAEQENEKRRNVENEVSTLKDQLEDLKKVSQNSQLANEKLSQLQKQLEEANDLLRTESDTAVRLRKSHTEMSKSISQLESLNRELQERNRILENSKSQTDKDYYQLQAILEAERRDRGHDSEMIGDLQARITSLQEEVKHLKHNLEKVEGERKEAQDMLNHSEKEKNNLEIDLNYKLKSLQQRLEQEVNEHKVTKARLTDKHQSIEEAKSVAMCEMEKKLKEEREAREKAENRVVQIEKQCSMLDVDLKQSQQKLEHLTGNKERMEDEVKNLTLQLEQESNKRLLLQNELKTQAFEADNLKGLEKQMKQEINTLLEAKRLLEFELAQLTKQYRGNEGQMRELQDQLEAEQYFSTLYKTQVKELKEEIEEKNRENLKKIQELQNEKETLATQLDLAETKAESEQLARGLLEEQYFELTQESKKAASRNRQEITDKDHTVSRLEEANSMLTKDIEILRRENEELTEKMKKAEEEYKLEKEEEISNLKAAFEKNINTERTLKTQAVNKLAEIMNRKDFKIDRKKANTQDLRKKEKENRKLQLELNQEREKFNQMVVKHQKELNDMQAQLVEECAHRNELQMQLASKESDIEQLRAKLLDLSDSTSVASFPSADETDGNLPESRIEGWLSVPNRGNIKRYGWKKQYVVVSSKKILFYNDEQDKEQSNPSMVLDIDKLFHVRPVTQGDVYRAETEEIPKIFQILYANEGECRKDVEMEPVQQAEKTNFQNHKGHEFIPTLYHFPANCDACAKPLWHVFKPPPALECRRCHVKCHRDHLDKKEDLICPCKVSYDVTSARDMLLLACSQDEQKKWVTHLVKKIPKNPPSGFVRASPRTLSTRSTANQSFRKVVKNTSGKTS
Sequence of GSK3B (human) (P49841 whole entry, looked up): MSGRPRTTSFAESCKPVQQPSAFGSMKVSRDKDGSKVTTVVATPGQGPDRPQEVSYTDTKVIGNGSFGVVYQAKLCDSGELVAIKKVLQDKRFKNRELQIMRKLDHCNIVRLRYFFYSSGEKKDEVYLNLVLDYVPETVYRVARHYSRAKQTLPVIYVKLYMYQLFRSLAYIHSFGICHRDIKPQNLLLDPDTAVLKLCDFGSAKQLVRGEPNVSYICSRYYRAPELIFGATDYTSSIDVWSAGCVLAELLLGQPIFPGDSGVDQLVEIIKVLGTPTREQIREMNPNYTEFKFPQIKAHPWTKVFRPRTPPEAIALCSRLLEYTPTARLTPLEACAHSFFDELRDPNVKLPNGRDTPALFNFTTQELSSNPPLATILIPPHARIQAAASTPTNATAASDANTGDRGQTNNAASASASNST
Sequence of CDK4 CCND1 (human) (P11802 whole entry, looked up): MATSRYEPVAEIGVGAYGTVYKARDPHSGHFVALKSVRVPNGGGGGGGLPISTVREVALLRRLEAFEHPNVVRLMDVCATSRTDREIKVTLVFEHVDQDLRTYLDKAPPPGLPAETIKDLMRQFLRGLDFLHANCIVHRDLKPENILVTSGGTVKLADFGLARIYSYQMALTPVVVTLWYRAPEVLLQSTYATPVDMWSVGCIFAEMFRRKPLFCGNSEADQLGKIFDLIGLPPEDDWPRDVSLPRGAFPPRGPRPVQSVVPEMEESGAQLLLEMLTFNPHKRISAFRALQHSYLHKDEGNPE
Sequence of CDK4 CCND1 (human) (P24385 whole entry, looked up): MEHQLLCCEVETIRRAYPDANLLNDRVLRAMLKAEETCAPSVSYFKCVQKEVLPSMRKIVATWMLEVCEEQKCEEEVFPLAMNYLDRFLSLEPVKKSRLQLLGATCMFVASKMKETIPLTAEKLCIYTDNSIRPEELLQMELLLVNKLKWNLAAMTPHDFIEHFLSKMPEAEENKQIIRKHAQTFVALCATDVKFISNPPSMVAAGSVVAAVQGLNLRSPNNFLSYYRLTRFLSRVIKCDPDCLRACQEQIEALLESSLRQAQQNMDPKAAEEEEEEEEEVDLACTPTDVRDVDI

## CNc1cc2c(Nc3cccc(Br)c3)ncnc2cn1
ABL2 (human)
  residual activity: 84.8%
AKT3 (human)
  residual activity: 103%
ALK (human)
  residual activity: 82%
CAMK2A (human)
  residual activity: 105%
CDK4 CCND1 (human)
  residual activity: 104%
CDK5 CDK5R1 p35 (human)
  residual activity: 100%
CDK7 CCNH MNAT1 (human)
  residual activity: 102%
CDK9 CCNT1 (human)
  residual activity: 106%
CLK3 (human)
  residual activity: 87.6%
CSF1R (human)
  residual activity: 100%
DAPK1 (human)
  residual activity: 80.5%
EPHA7 (human)
  residual activity: 94.6%
EPHB2 (human)
  residual activity: 91.2%
EPHB4 (human)
  residual activity: 99.6%
GSG2 (human)
  residual activity: 91.8%
GSK3B (human)
  residual activity: 89.6%
HIPK3 (human)
  residual activity: 94.1%
MAP3K11 (human)
  residual activity: 96.9%
MAP3K14 (human)
  residual activity: 126%
MAP3K7 TAB1 (human)
  residual activity: 94.9%
MAPK1 (human)
  residual activity: 88.6%
MAPK8 (human)
  residual activity: 96.4%
MARK2 (human)
  residual activity: 90.9%
MET (human)
  residual activity: 106%
MINK1 (human)
  residual activity: 91.9%
MLTK (human)
  residual activity: 82.3%
MUSK (human)
  residual activity: 81.3%
NEK4 (human)
  residual activity: 94.9%
NEK9 (human)
  residual activity: 99.4%
NTRK3 (human)
  residual activity: 72.7%
PRKCB1 (human)
  residual activity: 95.3%
PRKD3 (human)
  residual activity: 78.5%
RIPK2 (human)
  residual activity: 69.2%
ROCK1 (human)
  residual activity: 98.8%
ROS1 (human)
  residual activity: 89.1%
RPS6KA4 KD2 (human)
  residual activity: 109%
RPS6KA5 KD2 (human)
  residual activity: 92.3%
SRC (human)
  residual activity: 94.6%
TAOK2 (human)
  residual activity: 95.3%
TLK2 (human)
  residual activity: 114%
VRK1 (human)
  residual activity: 90.2%

## Cc1[nH]c(/C=C2\C(=O)Nc3ccc(S(=O)(=O)N(C)c4cccc(Cl)c4)cc32)c(C)c1C(=O)N1CCN(C)CC1
ABL2 (human)
  residual activity: 73.2%
AKT3 (human)
  residual activity: 107%
ALK (human)
  residual activity: 77.7%
CAMK2A (human)
  residual activity: 73.8%
CDK4 CCND1 (human)
  residual activity: 88.5%
CDK5 CDK5R1 p35 (human)
  residual activity: 95.8%
CDK7 CCNH MNAT1 (human)
  residual activity: 59.7%
CDK9 CCNT1 (human)
  residual activity: 91%
CLK3 (human)
  residual activity: 71.1%
CSF1R (human)
  residual activity: 64.9%
DAPK1 (human)
  residual activity: 106%
EPHA7 (human)
  residual activity: 85.8%
EPHB2 (human)
  residual activity: 91.8%
EPHB4 (human)
  residual activity: 95.4%
GSG2 (human)
  residual activity: 102%
GSK3B (human)
  residual activity: 96.1%
HIPK3 (human)
  residual activity: 103%
MAP3K11 (human)
  residual activity: 79.1%
MAP3K14 (human)
  residual activity: 109%
MAP3K7 TAB1 (human)
  residual activity: 79.8%
MAPK1 (human)
  residual activity: 85.1%
MAPK8 (human)
  residual activity: 86.9%
MARK2 (human)
  residual activity: 44.1%
MET (human)
  residual activity: 1.18%
MINK1 (human)
  residual activity: 68.7%
MLTK (human)
  residual activity: 97.4%
MUSK (human)
  residual activity: 84.2%
NEK4 (human)
  residual activity: 79.7%
NEK9 (human)
  residual activity: 92.5%
NTRK3 (human)
  residual activity: 5.93%
PRKCB1 (human)
  residual activity: 94%
PRKD3 (human)
  residual activity: 42.7%
RIPK2 (human)
  residual activity: 92.7%
ROCK1 (human)
  residual activity: 84%
ROS1 (human)
  residual activity: 69.6%
RPS6KA4 KD2 (human)
  residual activity: 109%
RPS6KA5 KD2 (human)
  residual activity: 94.1%
SRC (human)
  residual activity: 53.3%
TAOK2 (human)
  residual activity: 21.9%
TLK2 (human)
  residual activity: 95.8%
VRK1 (human)
  residual activity: 87.3%

## CCOC(=O)c1c(C)[nH]c(/C=C2\C(=O)Nc3ccccc32)c1C
ABL2 (human)
  residual activity: 88.5%
AKT3 (human)
  residual activity: 103%
ALK (human)
  residual activity: 79.2%
CAMK2A (human)
  residual activity: 96.8%
CDK4 CCND1 (human)
  residual activity: 103%
CDK5 CDK5R1 p35 (human)
  residual activity: 96.7%
CDK7 CCNH MNAT1 (human)
  residual activity: 96.8%
CDK9 CCNT1 (human)
  residual activity: 94.7%
CLK3 (human)
  residual activity: 100%
CSF1R (human)
  residual activity: 52.5%
DAPK1 (human)
  residual activity: 100%
EPHA7 (human)
  residual activity: 85.3%
EPHB2 (human)
  residual activity: 95.4%
EPHB4 (human)
  residual activity: 89.5%
GSG2 (human)
  residual activity: 92.9%
GSK3B (human)
  residual activity: 105%
HIPK3 (human)
  residual activity: 94.5%
MAP3K11 (human)
  residual activity: 47%
MAP3K14 (human)
  residual activity: 118%
MAP3K7 TAB1 (human)
  residual activity: 85.8%
MAPK1 (human)
  residual activity: 96.4%
MAPK8 (human)
  residual activity: 106%
MARK2 (human)
  residual activity: 87.6%
MET (human)
  residual activity: 87.4%
MINK1 (human)
  residual activity: 88.9%
MLTK (human)
  residual activity: 92.7%
MUSK (human)
  residual activity: 88.7%
NEK4 (human)
  residual activity: 95.1%
NEK9 (human)
  residual activity: 80.8%
NTRK3 (human)
  residual activity: 27.9%
PRKCB1 (human)
  residual activity: 103%
PRKD3 (human)
  residual activity: 90.1%
RIPK2 (human)
  residual activity: 88.3%
ROCK1 (human)
  residual activity: 99.1%
ROS1 (human)
  residual activity: 99.1%
RPS6KA4 KD2 (human)
  residual activity: 87%
RPS6KA5 KD2 (human)
  residual activity: 91.8%
SRC (human)
  residual activity: 93.8%
TAOK2 (human)
  residual activity: 105%
TLK2 (human)
  residual activity: 96.5%
VRK1 (human)
  residual activity: 104%

## CCCC(=O)Oc1ccc2[nH]c(C(=O)c3cc4ccccc4[nH]3)cc2c1
ABL2 (human)
  residual activity: 96.3%
AKT3 (human)
  residual activity: 101%
ALK (human)
  residual activity: 83.7%
CAMK2A (human)
  residual activity: 87%
CDK4 CCND1 (human)
  residual activity: 106%
CDK5 CDK5R1 p35 (human)
  residual activity: 97.5%
CDK7 CCNH MNAT1 (human)
  residual activity: 98.7%
CDK9 CCNT1 (human)
  residual activity: 105%
CLK3 (human)
  residual activity: 96.9%
CSF1R (human)
  residual activity: 103%
DAPK1 (human)
  residual activity: 85.8%
EPHA7 (human)
  residual activity: 97.2%
EPHB2 (human)
  residual activity: 98.4%
EPHB4 (human)
  residual activity: 101%
GSG2 (human)
  residual activity: 99.2%
GSK3B (human)
  residual activity: 94%
HIPK3 (human)
  residual activity: 94.7%
MAP3K11 (human)
  residual activity: 98.7%
MAP3K14 (human)
  residual activity: 109%
MAP3K7 TAB1 (human)
  residual activity: 92.1%
MAPK1 (human)
  residual activity: 105%
MAPK8 (human)
  residual activity: 84%
MARK2 (human)
  residual activity: 83.1%
MET (human)
  residual activity: 103%
MINK1 (human)
  residual activity: 93.8%
MLTK (human)
  residual activity: 104%
MUSK (human)
  residual activity: 79.8%
NEK4 (human)
  residual activity: 96.4%
NEK9 (human)
  residual activity: 110%
NTRK3 (human)
  residual activity: 95.9%
PRKCB1 (human)
  residual activity: 97.3%
PRKD3 (human)
  residual activity: 102%
RIPK2 (human)
  residual activity: 90%
ROCK1 (human)
  residual activity: 105%
ROS1 (human)
  residual activity: 97%
RPS6KA4 KD2 (human)
  residual activity: 99.1%
RPS6KA5 KD2 (human)
  residual activity: 95.3%
SRC (human)
  residual activity: 97%
TAOK2 (human)
  residual activity: 110%
TLK2 (human)
  residual activity: 97.1%
VRK1 (human)
  residual activity: 85.9%
